Data on ten compounds can be found in US20250353864A1, “INDAZOLE CONTAINING MACROCYCLES AND THEIR USE” (BLOSSOMHILL THERAPEUTICS, INC., priority 2022, published 2025).

The IC50 is the concentration that gives 50% inhibition.

What all share (type): biochemical
The target in one test is EGFR WT (Homo sapiens (Human), UniProt P00533). The test can be described thus: HotSpot radiometric kinase assay (Reaction Biology), EGFR WT. As to conditions: 10 μM ATP. An outline of the steps: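 IC50 values derive from curve fits of 33P incorporation measured by P81 filter binding. ATP was 10 μM final; incubation lasted 120 min at room temperature after ~20 min compound preincubation.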

The target in a further test is EGFR (D770_N771insNPG) (Homo sapiens (Human), UniProt P00533, INS770NPG). The test can be described thus: HotSpot radiometric kinase assay, EGFR (D770_N771insNPG). As to conditions: 10 μM ATP, read-out: EGFR (Δ770_N771insNPG) IC50. Put shortly: (§1)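 Radiometric filter-binding read-out: incorporated 33P was retained on P81 ion-exchange paper after washing away unbound phosphate. Reactions ran 120 min at room temperature with 10 μM final ATP, following ~20 min compound preincubation in Hepes pH 7.5 buffer containing 1% DMSO. IC50 from fitted curves.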

A further test addresses EGFR Δ746-750 mutant (Homo sapiens (Human), UniProt P00533, DEL746-750). Description: HotSpot radiometric kinase assay, EGFR Δ746-750 mutant. The conditions noted are these: 10 μM ATP. An outline of the steps: as §1
Test [1] has as its target EGFR Δ746-750/C797S mutant (Homo sapiens (Human), UniProt P00533, C797S/DEL746-750). The test can be described thus: HotSpot radiometric kinase assay, EGFR Δ746-750/C797S mutant. As to conditions: 10 μM ATP. Put shortly:
as §1

A further test addresses EGFR L858R mutant (Homo sapiens (Human), UniProt P00533, L858R). The test can be described thus: HotSpot radiometric kinase assay, EGFR L858R mutant. As to conditions: 10 μM ATP. An outline of the steps: as §1
The next test deals with EGFR L858R/T790M mutant (Homo sapiens (Human), UniProt P00533, L858R/T790M). Description: HotSpot radiometric kinase assay, EGFR L858R/T790M mutant. The conditions noted are these: 10 μM ATP. An outline of the steps: as §1
Test [2] concerns the target EGFR L858R/T790M/C797S mutant (Homo sapiens (Human), UniProt P00533, C797S/L858R/T790M). Description: HotSpot radiometric kinase assay, EGFR L858R/T790M/C797S mutant. As to conditions: 10 μM ATP. An outline of the steps: as §1
A further test deals with CLK1 (Homo sapiens (Human), UniProt P49759). The test can be described thus: Inhibition of CLK1 kinase activity evaluated at Nanosyn (ADP-Glo). As to conditions: ADP-Glo luminescence. Put shortly: (§2)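 ADP-Glo luminescence (40 min depletion, 10 min detection) quantifies ADP from ATP-initiated phosphorylation of substrate by each CLK isoform in HEPES pH 7.5 buffer, 1% DMSO, assay-specific incubation. %-inhibition calculated against uninhibited and enzyme-free controls.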

The target in a further test is CLK2 (Homo sapiens (Human), UniProt P49760). Description: Inhibition of CLK2 kinase activity evaluated at Nanosyn (ADP-Glo). As to conditions: ADP-Glo luminescence. Put shortly:
as §2

The target in the next test is CLK3 (Homo sapiens (Human), UniProt P49761). The test can be described thus: Inhibition of CLK3 kinase activity evaluated at Nanosyn (ADP-Glo). As to conditions: ADP-Glo luminescence. Put shortly:
as §2

Another test addresses CLK4 (Homo sapiens (Human), UniProt Q9HAZ1). The test can be described thus: Inhibition of CLK4 kinase activity evaluated at Nanosyn (ADP-Glo). As to conditions: ADP-Glo luminescence. Put shortly: as §2
For orientation: ADP-Glo turns the ADP formed in a reaction into a luminescent signal.

Sequence of EGFR (D770_N771insNPG) (P00533 other isoform, or with tags, fused parts or gaps del 1-668/ins NPG behind 770 limits assumed): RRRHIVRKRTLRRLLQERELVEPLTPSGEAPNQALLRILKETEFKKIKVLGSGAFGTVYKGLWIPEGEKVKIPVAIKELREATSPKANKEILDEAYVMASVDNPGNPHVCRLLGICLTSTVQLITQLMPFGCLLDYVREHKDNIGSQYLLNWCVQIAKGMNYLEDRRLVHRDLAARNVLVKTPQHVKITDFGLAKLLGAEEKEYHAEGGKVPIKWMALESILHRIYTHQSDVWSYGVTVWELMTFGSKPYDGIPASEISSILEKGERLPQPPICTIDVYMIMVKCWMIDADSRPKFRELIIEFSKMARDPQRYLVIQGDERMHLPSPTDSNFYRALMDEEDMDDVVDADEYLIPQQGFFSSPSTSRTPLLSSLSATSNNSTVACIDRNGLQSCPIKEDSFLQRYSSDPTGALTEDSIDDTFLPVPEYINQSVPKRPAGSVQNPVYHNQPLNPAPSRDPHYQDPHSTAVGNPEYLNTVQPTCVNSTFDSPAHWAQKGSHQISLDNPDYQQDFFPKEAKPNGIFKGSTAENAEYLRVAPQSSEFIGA
Sequence of EGFR L858R mutant (P00533 25-1210 L858R): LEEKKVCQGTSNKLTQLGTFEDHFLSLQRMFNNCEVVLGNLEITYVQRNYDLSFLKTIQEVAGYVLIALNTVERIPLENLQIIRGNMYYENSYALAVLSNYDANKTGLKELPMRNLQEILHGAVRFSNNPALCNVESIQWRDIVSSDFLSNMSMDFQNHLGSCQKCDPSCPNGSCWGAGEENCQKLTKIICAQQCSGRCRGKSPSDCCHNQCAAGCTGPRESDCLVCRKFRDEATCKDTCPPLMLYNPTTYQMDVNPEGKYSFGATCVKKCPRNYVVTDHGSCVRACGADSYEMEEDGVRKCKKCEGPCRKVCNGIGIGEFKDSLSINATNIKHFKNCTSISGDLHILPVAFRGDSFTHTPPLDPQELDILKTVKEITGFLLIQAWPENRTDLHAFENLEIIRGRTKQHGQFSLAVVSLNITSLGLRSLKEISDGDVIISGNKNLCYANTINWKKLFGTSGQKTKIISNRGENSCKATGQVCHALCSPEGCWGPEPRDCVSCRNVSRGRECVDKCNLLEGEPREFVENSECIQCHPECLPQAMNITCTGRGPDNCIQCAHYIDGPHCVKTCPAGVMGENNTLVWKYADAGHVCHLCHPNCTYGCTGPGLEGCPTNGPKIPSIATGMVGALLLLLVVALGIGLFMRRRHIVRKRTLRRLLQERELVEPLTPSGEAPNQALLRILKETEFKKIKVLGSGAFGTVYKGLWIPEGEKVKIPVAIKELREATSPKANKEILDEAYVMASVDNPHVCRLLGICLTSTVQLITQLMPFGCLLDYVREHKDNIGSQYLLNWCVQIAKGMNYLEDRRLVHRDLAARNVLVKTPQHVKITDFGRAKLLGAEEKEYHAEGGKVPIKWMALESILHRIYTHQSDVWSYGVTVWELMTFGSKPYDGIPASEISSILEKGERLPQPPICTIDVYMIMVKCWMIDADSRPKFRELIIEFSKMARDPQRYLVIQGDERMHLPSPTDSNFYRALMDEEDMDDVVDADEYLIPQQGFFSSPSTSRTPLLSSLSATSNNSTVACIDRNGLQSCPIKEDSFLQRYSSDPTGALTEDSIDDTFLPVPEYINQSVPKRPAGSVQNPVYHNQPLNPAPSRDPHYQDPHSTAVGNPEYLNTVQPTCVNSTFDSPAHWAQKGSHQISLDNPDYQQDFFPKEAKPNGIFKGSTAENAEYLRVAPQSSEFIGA
Sequence of EGFR WT (P00533 25-1210): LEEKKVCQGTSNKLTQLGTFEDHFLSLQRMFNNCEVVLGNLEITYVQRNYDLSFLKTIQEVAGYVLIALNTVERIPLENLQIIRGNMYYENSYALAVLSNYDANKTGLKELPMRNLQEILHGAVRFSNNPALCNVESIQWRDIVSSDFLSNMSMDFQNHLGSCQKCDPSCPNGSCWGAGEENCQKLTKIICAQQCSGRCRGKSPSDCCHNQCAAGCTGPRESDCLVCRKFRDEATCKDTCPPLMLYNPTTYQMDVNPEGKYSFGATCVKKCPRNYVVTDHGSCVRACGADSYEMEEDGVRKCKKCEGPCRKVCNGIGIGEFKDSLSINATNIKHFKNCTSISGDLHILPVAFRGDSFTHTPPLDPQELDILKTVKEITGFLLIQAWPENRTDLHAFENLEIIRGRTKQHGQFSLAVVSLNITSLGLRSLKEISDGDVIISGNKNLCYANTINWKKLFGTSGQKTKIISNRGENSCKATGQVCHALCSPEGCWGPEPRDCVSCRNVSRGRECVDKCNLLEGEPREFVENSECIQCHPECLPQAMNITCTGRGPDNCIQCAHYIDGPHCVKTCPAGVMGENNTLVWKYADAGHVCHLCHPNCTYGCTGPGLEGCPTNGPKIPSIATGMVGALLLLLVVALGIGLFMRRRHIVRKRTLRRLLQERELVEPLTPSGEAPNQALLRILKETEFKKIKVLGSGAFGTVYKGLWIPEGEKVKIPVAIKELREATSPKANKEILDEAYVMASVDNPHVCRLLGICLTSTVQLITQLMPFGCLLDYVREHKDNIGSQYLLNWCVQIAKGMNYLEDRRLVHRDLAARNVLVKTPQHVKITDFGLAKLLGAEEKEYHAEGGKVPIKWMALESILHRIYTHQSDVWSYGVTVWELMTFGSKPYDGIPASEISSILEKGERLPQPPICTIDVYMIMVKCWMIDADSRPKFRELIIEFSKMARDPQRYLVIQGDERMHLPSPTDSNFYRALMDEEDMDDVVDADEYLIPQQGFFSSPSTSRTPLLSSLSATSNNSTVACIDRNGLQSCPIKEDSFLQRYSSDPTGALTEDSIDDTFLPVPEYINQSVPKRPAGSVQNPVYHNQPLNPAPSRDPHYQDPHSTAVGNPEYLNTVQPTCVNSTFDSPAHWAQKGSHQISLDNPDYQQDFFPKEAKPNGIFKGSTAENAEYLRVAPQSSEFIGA
Sequence of CLK1 (P49759 whole entry, canonical isoform): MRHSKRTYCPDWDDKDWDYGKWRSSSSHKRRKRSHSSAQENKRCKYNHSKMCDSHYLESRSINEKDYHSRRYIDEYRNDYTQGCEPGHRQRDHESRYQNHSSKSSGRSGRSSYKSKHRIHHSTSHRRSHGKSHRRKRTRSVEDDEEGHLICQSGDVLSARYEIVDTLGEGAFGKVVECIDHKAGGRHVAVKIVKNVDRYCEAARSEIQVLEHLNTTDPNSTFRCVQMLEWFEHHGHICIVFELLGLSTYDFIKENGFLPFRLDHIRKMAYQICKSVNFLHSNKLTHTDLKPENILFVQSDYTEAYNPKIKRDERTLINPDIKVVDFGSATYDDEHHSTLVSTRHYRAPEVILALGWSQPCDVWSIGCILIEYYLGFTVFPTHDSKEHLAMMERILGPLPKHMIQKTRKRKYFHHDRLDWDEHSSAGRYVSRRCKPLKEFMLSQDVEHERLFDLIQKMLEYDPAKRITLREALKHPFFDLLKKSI
Sequence of CLK3 (P49761 whole entry): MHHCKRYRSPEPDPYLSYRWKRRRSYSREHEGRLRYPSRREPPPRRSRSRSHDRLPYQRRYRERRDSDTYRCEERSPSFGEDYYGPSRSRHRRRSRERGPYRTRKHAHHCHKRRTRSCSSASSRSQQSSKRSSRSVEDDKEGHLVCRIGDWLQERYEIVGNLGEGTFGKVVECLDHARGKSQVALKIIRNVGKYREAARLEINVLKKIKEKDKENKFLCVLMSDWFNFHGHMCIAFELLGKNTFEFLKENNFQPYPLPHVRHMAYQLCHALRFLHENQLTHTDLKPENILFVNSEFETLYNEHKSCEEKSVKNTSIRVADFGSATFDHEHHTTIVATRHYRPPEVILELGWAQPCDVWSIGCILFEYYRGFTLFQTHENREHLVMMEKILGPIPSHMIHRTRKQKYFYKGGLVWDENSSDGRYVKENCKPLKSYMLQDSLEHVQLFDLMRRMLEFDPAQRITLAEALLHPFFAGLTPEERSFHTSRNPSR
Sequence of CLK4 (Q9HAZ1 whole entry): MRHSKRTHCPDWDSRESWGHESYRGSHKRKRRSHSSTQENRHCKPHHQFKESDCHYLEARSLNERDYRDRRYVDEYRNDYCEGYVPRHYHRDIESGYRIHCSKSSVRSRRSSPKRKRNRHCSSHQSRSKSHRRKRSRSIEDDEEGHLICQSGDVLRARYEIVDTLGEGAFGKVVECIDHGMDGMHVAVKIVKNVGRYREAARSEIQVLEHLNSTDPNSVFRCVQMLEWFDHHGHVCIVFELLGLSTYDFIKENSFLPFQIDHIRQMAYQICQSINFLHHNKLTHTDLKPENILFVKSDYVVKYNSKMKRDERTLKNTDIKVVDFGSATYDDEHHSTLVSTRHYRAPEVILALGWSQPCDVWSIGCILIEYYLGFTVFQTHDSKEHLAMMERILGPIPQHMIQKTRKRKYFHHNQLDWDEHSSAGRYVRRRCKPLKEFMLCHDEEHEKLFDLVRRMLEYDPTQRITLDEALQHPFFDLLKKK
Sequence of CLK2 (P49760 whole entry): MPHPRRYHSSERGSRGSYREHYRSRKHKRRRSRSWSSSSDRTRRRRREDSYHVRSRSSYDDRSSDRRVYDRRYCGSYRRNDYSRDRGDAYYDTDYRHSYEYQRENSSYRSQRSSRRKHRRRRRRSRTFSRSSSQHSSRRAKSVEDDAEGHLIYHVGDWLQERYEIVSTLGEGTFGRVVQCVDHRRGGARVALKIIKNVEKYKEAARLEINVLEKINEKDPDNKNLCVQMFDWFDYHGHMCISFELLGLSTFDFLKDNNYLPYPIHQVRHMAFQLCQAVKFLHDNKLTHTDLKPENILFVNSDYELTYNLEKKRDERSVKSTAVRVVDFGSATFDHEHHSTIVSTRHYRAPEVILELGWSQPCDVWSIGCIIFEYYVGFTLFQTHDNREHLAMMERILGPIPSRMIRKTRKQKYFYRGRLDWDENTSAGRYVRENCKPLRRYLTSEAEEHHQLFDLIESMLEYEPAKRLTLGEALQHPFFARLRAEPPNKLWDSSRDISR

For `CC(C)Oc1nn(CCO)c2c1/C=C/c1n[nH]c3cc(F)c(cc13)-c1cnn(C)c1O[C@@H]1CCCN(C2)C1` [Example 199, 2-[(10R,19E)-22-fluoro-8-methyl-18-[(propan-2-yl)oxy]-2,10,11,12,13,15-hexahydro-3,5-etheno-10,14-methanotripyrazolo[3,4-h:3′,4′-l:4″,3″- p][1,6]oxazacycloheptadecin-16(8H)-yl]ethan-1-ol], the concentration for half-maximal inhibition (IC50) on EGFR WT was 1280 nM; at EGFR (D770_N771insNPG), greater than 1000 nM; against EGFR Δ746-750 mutant it was 147 nM; in [1], 42.5 nM; on EGFR L858R mutant it was 87.8 nM; on EGFR L858R/T790M mutant, 64.4 nM. For the same compound, the IC50 in test [2] amounted to 43.9 nM; at CLK1 it was 1.05 nM; on CLK2, 2.29 nM; at CLK3, 19.3 nM; at CLK4, 1.79 nM.
Take `C[C@H]1CN(C)Cc2c(c(OCC#N)nn2CCO)/C=C/c2n[nH]c3ccc(cc23)-c2cnn(C)c2O1` [Example 203, {[(10S,17E)-14-(2-hydroxyethyl)-8,10,12-trimethyl-2,10,11,12,13,14-hexahydro-8H-3,5-ethenotripyrazolo[3,4-f:3′,4′-j:4″,3″- n][1,4]oxazacyclopentadecin-16-yl]oxy}acetonitrile]: the IC50 at EGFR WT was 0.23 nM; at EGFR (D770_N771insNPG), 0.65 nM; at EGFR Δ746-750 mutant, 0.11 nM; in test [1], 0.23 nM; against EGFR L858R mutant, 0.12 nM; on EGFR L858R/T790M mutant, 0.17 nM. For the same compound, the IC50 was found to be 0.78 nM in test [2]; 0.72 nM at CLK1; 0.14 nM on CLK2; 151 nM on CLK3; 1.59 nM on CLK4.
In the case of `CCOc1nn(C)c2c1/C=C/c1n[nH]c3cc(F)c(cc13)-c1cnn(C)c1O[C@@H](C)CN(CC)C2` [Example 206, (10S,17E)-16-ethoxy-12-ethyl-19-fluoro-8,10,14-trimethyl-2,10,11,12,13,14-hexahydro-8H-3,5-ethenotripyrazolo[3,4-f:3′,4′-j:4″,3″-n][1,4]oxazacyclopentadecine], the IC50 stood at 3.33 nM against EGFR WT; 43.5 nM at EGFR (D770_N771insNPG); 0.76 nM on EGFR Δ746-750 mutant; 0.74 nM in [1]; 1.69 nM against EGFR L858R mutant; 0.52 nM on EGFR L858R/T790M mutant. The IC50 in test [2] was 1.46 nM; at CLK1, 1.67 nM; on CLK2, 1.72 nM; at CLK3 it was 477 nM; on CLK4, 3.69 nM.
On to `C[C@H]1CN(C)Cc2c(c(OCC(F)(F)F)nn2CCO)/C=C/c2n[nH]c3cc(F)c(cc23)-c2cnn(C)c2O1` [Example 211, 2-[(10S,17E)-19-fluoro-8,10,12-trimethyl-16-(2,2,2-trifluoroethoxy)-2,8,10,11,12,13-hexahydro-14H-3,5-ethenotripyrazolo[3,4-f:3′,4′-j:4″,3″- n][1,4]oxazacyclopentadecin-14-yl]ethan-1-ol], for which the IC50 is greater than 1000 nM at EGFR WT; greater than 1000 nM on EGFR (D770_N771insNPG); greater than 1000 nM at EGFR Δ746-750 mutant; 2870 nM in test [1]; 400 nM against EGFR L858R mutant; greater than 1000 nM against EGFR L858R/T790M mutant. Moreover, the IC50 in test [2] is greater than 1000 nM; on CLK1 it was 270 nM; on CLK2, 114 nM; at CLK3, 1 nM; on CLK4 it was 397 nM.
In the case of `CC(C)Oc1nn(CCO)c2c1/C=C/c1n[nH]c3ccc(cc13)-c1cnn(C)c1O[C@H](C)CN(C1CC1)C2` [Example 212, 2-{(10R,17E)-12-cyclopropyl-8,10-dimethyl-16-[(propan-2-yl)oxy]-2,8,10,11,12,13-hexahydro-14H-3,5-ethenotripyrazolo[3,4-f:3′,4′-j:4″,3″- n][1,4]oxazacyclopentadecin-14-yl}ethan-1-ol], the IC50 is 154 nM on EGFR WT; 139 nM on EGFR (D770_N771insNPG); 16.9 nM at EGFR Δ746-750 mutant; 3.87 nM in test [1]; 52.3 nM on EGFR L858R mutant; 0.57 nM against EGFR L858R/T790M mutant. For the same compound, the IC50 came out at 0.42 nM in [2]; 5.27 nM at CLK1; 7.14 nM at CLK2; 237 nM on CLK3; 5.31 nM on CLK4.
`CC(C)Oc1nn(CCO)c2c1/C=C/c1n[nH]c3ccc(cc13)-c1cnn(C)c1OC[C@H](C)N(C1CC1)C2` [Example 213, 2-{(11S,17E)-12-cyclopropyl-8,11-dimethyl-16-[(propan-2-yl)oxy]-2,8,10,11,12,13-hexahydro-14H-3,5-ethenotripyrazolo[3,4-f:3′,4′-j:4″,3″- n][1,4]oxazacyclopentadecin-14-yl}ethan-1-ol]: the IC50 was 296 nM against EGFR WT; 431 nM on EGFR (D770_N771insNPG); 21.1 nM on EGFR Δ746-750 mutant; 5.07 nM in [1]; 82.6 nM at EGFR L858R mutant; 0.42 nM against EGFR L858R/T790M mutant. Further, the IC50 was determined as 0.2 nM in [2]; 5.75 nM on CLK1; 6.11 nM at CLK2; 1 nM on CLK3; 5.07 nM at CLK4.
Turning to `CC(C)Oc1nn(CCO)c2c1/C=C/c1n[nH]c3ccc(cc13)-c1cnn(C)c1O[C@@H](C)C(=O)N(C)C2` [Example 220, (10S,17E)-14-(2-hydroxyethyl)-8,10,12-trimethyl-16-[(propan-2-yl)oxy]-2,12,13,14-tetrahydro-8H-3,5-ethenotripyrazolo[3,4-f:3′,4′-j:4″,3″- n][1,4]oxazacyclopentadecin-11(10H)-one], the IC50 against EGFR WT came out at 1440 nM; at EGFR (D770_N771insNPG), 575 nM; against EGFR Δ746-750 mutant, 398 nM; in test [1], 475 nM; at EGFR L858R mutant, 515 nM; at EGFR L858R/T790M mutant it was 23.1 nM. Besides, the half-maximal inhibitory concentration (IC50) in test [2] was found to be 27.5 nM; on CLK1 it was 2.76 nM; at CLK2, 8.84 nM; at CLK3, 1 nM; on CLK4, 4.31 nM.
Take `CCOc1nn(CC(C)(C)O)c2c1/C=C/c1n[nH]c3ccc(cc13)-c1cnn(C)c1O[C@@H](C)CN(CC)C2` [Example 222, 1-[(10S,17E)-16-ethoxy-12-ethyl-8,10-dimethyl-2,8,10,11,12,13-hexahydro-14H-3,5-ethenotripyrazolo[3,4-f:3′,4′-j:4″,3″-n][1,4]oxazacyclopentadecin-14-yl]-2-methylpropan-2-ol]: the IC50 at EGFR WT worked out at 27.8 nM; on EGFR (D770_N771insNPG), 57.8 nM; against EGFR Δ746-750 mutant, 1.77 nM; in test [1], 2.17 nM; on EGFR L858R mutant, 4.75 nM; against EGFR L858R/T790M mutant, 0.31 nM. Further, the IC50 in [2] is 0.18 nM; on CLK1, 2.31 nM; on CLK2, 3.17 nM; at CLK3 it was 306 nM; at CLK4, 2.46 nM.
With `CC(C)Oc1nn(CCO)c2c1/C=C/c1n[nH]c3ccc(cc13)-c1cnn(C)c1O[C@@H](C)CN(C)[C@@H]2C` [Example 223], the IC50 against EGFR WT turned out to be 42.6 nM; on EGFR (D770_N771insNPG), 102 nM; against EGFR Δ746-750 mutant it was 4.07 nM; in test [1], 3.12 nM; on EGFR L858R mutant it was 7.07 nM; against EGFR L858R/T790M mutant, 0.61 nM. The half-inhibitory concentration (IC50) in test [2] came to 0.34 nM; on CLK1, 0.85 nM; at CLK2, 0.28 nM; on CLK3 it was 30 nM; at CLK4, 2.11 nM.
With `CC(C)Oc1nn(CCO)c2c1/C=C/c1n[nH]c3ccc(cc13)-c1cnn(C)c1OC(CF)CN(C)C2` (centres unmarked) [Example 225, 2-{(17E)-10-(fluoromethyl)-8,12-dimethyl-16-[(propan-2-yl)oxy]-2,8,10,11,12,13-hexahydro-14H-3,5-ethenotripyrazolo[3,4-f:3′,4′-j:4″,3″-n][1,4]oxazacyclopentadecin-14-yl}ethan-1-ol], the IC50 is 51.8 nM on EGFR WT; 65.4 nM at EGFR (D770_N771insNPG); 5.39 nM against EGFR Δ746-750 mutant; 1.44 nM in test [1]; 12.2 nM on EGFR L858R mutant; 0.57 nM on EGFR L858R/T790M mutant. Moreover, the half-maximal inhibitory concentration (IC50) in test [2] was 0.21 nM; on CLK1, 1.11 nM; at CLK2, 0.49 nM; at CLK3, 77.7 nM; at CLK4 it was 1.92 nM.
